Experimental data reported in ChEMBL document CHEMBL1142072, “Comparison of itraconazole and fluconazole treatments in a murine model of coccidioidal meningitis” (2007).
In brackets after ≈: the same amount, converted by molar mass. Activity calls are given as the source filed them. No cut-off for these calls is given here.

Experiments:
Mus musculus [1] = experiment: Prolongation of survival in CD1 mouse infected with Coccidioides immitis Silveira administered after 3 days of infection at 50 mg/kg, po bid after 12 days relative to control; type: functional, organism-based; parameters: dose 50 mg/kg
Coccidioides immitis [2] = experiment: Antifungal activity against Coccidioides immitis by broth macrodilution method; type: functional; details: for MIC50 / MIC90: Coccidioides immitis
Mus musculus [3] = experiment: Prolongation of survival in po dosed CD1 mouse infected with Coccidioides immitis Silveira administered after 3 days of infection after 12 days relative to control; type: functional, organism-based
Mus musculus [4] = experiment: Prolongation of survival in CD1 mouse infected with Coccidioides immitis Silveira administered after 3 days of infection at 10 mg/kg, po bid after 12 days relative to control; type: functional, organism-based; parameters: dose 10 mg/kg
Coccidioides immitis [5] = experiment: Effect on fungal burdens in Coccidioides immitis Silveira infected CD1 mouse lung administered after 3 days of infection at 50 mg/kg, po bid after 12 days; type: functional, organism-based; parameters: dose 50 mg/kg
Mus musculus [6] = experiment: Prolongation of survival in CD1 mouse infected with Coccidioides immitis Silveira administered after 3 days of infection at 25 mg/kg, po bid after 12 days relative to control; type: functional, organism-based; parameters: dose 25 mg/kg
Coccidioides immitis [7] = experiment: Effect on Coccidioides immitis Silveira infection in CD1 mouse brain, spinal cord and lungs administered after 3 days of infection at 50 mg/kg, po bid after 10 days; type: functional, organism-based; parameters: dose 50 mg/kg
Coccidioides immitis [8] = experiment: Effect on fungal burdens in Coccidioides immitis Silveira infected CD1 mouse brain administered after 3 days of infection at 50 mg/kg, po bid after 12 days; type: functional
Coccidioides immitis [9] = experiment: Reduction of fungal burden in Coccidioides immitis Silveira infected po dosed CD1 mouse brain, spinal cord, lung, kidney administered twice daily after 3 days of infection measured after 5 days relative to control; type: functional, organism-based
Coccidioides immitis [10] = experiment: Reduction of fungal burden in Coccidioides immitis Silveira infected CD1 mouse lung and kidney administered after 3 days of infection at 10 mg/kg, po bid after 5 days relative to control; type: functional, organism-based; parameters: dose 10 mg/kg
Coccidioides immitis [11] = experiment: Effect on fungal burdens in Coccidioides immitis Silveira infected CD1 mouse spinal cord administered after 3 days of infection at 50 mg/kg, po bid after 12 days; type: functional

OC(Cn1cncn1)(Cn1cncn1)c1ccc(F)cc1F [FLUCONAZOLE]
Activity (Mus musculus [1]): Active | MFC50 (Coccidioides immitis [2]): 25 µg/mL (≈ 81.6 µM) | MFC90 (Coccidioides immitis [2]): >100 µg/mL | MIC50 (Coccidioides immitis [2]): 25 µg/mL (≈ 81.6 µM) | MIC90 (Coccidioides immitis [2]): > 100 µg/mL | Activity (Mus musculus [3]): Dose-dependent effect | Activity (Mus musculus [4]): Active | Activity (Coccidioides immitis [5]): Active | Activity (Mus musculus [6]): Active | Activity (Coccidioides immitis [7]): Active | Activity (Coccidioides immitis [8]): Active | Activity (Coccidioides immitis [9]): Dose-dependent effect | Activity (Coccidioides immitis [10]): inactive | Activity (Coccidioides immitis [11]): Active

CCC(C)n1ncn(-c2ccc(N3CCN(c4ccc(OCC5COC(Cn6cncn6)(c6ccc(Cl)cc6Cl)O5)cc4)CC3)cc2)c1=O (configuration not stated) [ITRACONAZOLE]
Activity (Mus musculus [1]): Active | MFC50 (Coccidioides immitis [2]): 1.56 µg/mL (≈ 2.21 µM) | MFC90 (Coccidioides immitis [2]): 6.25 µg/mL (≈ 8.86 µM) | MIC50 (Coccidioides immitis [2]): 0.78 µg/mL (≈ 1.11 µM) | MIC90 (Coccidioides immitis [2]): 1.56 µg/mL (≈ 2.21 µM) | Activity (Mus musculus [3]): Dose-dependent effect | Activity (Mus musculus [4]): Active | Activity (Coccidioides immitis [5]): Active | Activity (Mus musculus [6]): Active | Activity (Coccidioides immitis [7]): Active | log10CFU/g (Coccidioides immitis [8]): 0.75 | Activity (Coccidioides immitis [9]): Dose-dependent effect | log10CFU/g (Coccidioides immitis [11]): 1.73
